Measurements reported in patent publication US20040224898A1, “Compositions and methods for promoting lipid mobilization in humans” (priority 2002, published 2004).

Assays:
Type in all cases: cell-based
[1] = test system: human adipocytes; test: Effect of propanolol on agent-induced glycerol release; settings: agent 10 micromolar
Procedure: (§1) Human pre-adipocytes were isolated by liposuction and maintained in AGM for three weeks in order to permit the pre-adipocytes to differentiate to become mature adipocytes. AGM was removed, and adipocytes were incubated in Krebs-Ringers buffer comprising 0.1% fatty acid-free BSA at 37° C. for five hours in the presence of selected concentrations (10^−9 to 10^−5 molar) of one of Schistocera gregaria AKH II, cockroach hypertrehalosemic factor (obtained from Sigma Chemical Co, St. Louis, Mo., catalog number P0175), and Locusta migratoria AKH I (obtained from American Peptide Co., Sunnyvale, Calif., catalog number 60-9-18). Glycerol released from the adipocytes was assayed using a commercially available kit (GPO-trinder assay kit available form Sigma Chemical Company, St. Louis, Mo.).
Glycerol release assays were performed as described in Example 2, except that the assays were performed using single selected concentrations of one of cockroach hypertrehalosemic factor, Locusta migratoria AKH I, and isoproterenol and multiple selected concentrations of propanolol.

[2] = test system: human adipocytes; test: Glycerol release assay
Procedure: as §1
A similar experiment was performed, in which glycerol release from adipocytes was assessed in the presence of the Locusta migratoria AKH I or the cockroach hypertrehalosemic factor or in the presence of isoproterenol.

[3] = test system: human adipocytes; test: Release of tritium label from radiolabeled palmitate (lipid mobilizing activity); settings: for % Tritium Label Release with Agent: 4 hours, 37° C., Table 6 experiment
Procedure: Lipid mobilizing activity was assessed by assaying release of tritium label from radiolabeled palmitate. This assay was performed by maintaining human pre-adipocytes in Adipocyte Growth Medium (AGM), which is Dulbecco's Modified Eagle's Medium (DMEM) mixed 1:1 by volume with Ham's F-10 medium. Ham's F-10 medium comprises 15 millimolar HEPES buffer adjusted to pH 7.4 and supplemented with biotin, pantothenate, human recombinant insulin, dexamethasone, fungicide, bactericide, and 3% (v/v) fetal bovine serum). Pre-adipocytes differentiated to become mature adipocytes by three weeks of maintenance in AGM. On the day prior to assay, the adipocytes were washed and incubated overnight in Krebs-Ringers buffer comprising 0.1% fatty acid-free bovine serum albumin (BSA) and comprising 1 microCurie per milliliter of tritiated (9,10-^3H) palmitate. The following day, the medium was removed, and the cells were washed three times […]. Isoproterenol (0 to 5×10^−8 molar), Schistocera gregaria AKH II (0 to 5×10^−5 molar), or Krebs-Ringer buffer (with 0.1% fatty acid-free BSA) containing neither of these was added to the cell suspension in a volume of 150 microliters. The suspensions were incubated for 4 hours at 37° C., and then 100 microliters of each sample was subjected to scintillation counting to detect released label in the supernatant. The total amount of label incorporated was determined for each well by solubilizing the cells using 1% sodium dodecyl sulfate and subjecting the entire contents of the well to scintillation counting. Fractional release of label was calculated by dividing the amount of label detected in cell supernatant by the total amount of label detected in the supernatant and in the cells remaining in the well, and percentage release was calculated by multiplying fractional release by 100.
A similar study was done using the same methods, except that cockroach hypertrehalosemic factor (0 to 5×10^−5 molar) was used in place of S. gregaria AKH II.
A similar tritium label release experiment performed using Heliothis zea AKH II and Locusta migratoria, except that a two-hour incubation period was used in place of a 4 hour incubation period.

Question: Which results are given for “EVNFSPGWGT (listed as Gromphadorhina portentosa) [cockroach hypertrehalosemic factor, insect AKH family peptide, Sigma Chemical Co. catalog number P0175]”?
Answer: Glycerol Release with Agent (medium concentration in millimolar) ([1]; propanolol 0 molar): 0.1515 ± 0.0155 millimolar; Glycerol Release with Agent (medium concentration in millimolar) ([1]; propanolol 1 × 10^−5 molar): 0.2033 ± 0.0134 millimolar; Glycerol Release with Agent (medium concentration in millimolar) ([1]; propanolol 1 × 10^−6 molar): 0.1370 ± 0.0170 millimolar; Glycerol Release with Agent (medium concentration in millimolar) ([1]; propanolol 1 × 10^−7 molar): 0.1161 ± 0.0232 millimolar; Glycerol Release with Agent (medium concentration in millimolar) ([2]; agent 1 × 10^−5, Table 9 experiment): 0.1515 ± 0.0155 millimolar; Glycerol Release with Agent (medium concentration in millimolar) ([2]; agent 1 × 10^−5 molar, five hours, 37° C., Table 8 experiment): 1.124 millimolar; Glycerol Release with Agent (medium concentration in millimolar) ([2]; agent 1 × 10^−6, Table 9 experiment): 0.1216 ± 0.0103 millimolar; Glycerol Release with Agent (medium concentration in millimolar) ([2]; agent 1 × 10^−6 molar, five hours, 37° C., Table 8 experiment): 0.555 millimolar; Glycerol Release with Agent (medium concentration in millimolar) ([2]; agent 1 × 10^−7, Table 9 experiment): 0.0944 ± 0.00166 millimolar; Glycerol Release with Agent (medium concentration in millimolar) ([2]; agent 1 × 10^−7 molar, five hours, 37° C., Table 8 experiment): 0.527 millimolar; Glycerol Release with Agent (medium concentration in millimolar) ([2]; agent 1 × 10^−8, Table 9 experiment): 0.0817 ± 0.0113 millimolar; Glycerol Release with Agent (medium concentration in millimolar) ([2]; agent 1 × 10^−8 molar, five hours, 37° C., Table 8 experiment): 0.451 millimolar; Glycerol Release with Agent (medium concentration in millimolar) ([2]; agent 1 × 10^−9 molar, five hours, 37° C., Table 8 experiment): 0.603 millimolar; Ability to promote lipid mobilization in human adipocytes ([2]; conclusion of Example 2): able to promote lipid mobilization; % Tritium Label Release with Agent ([3]; agent 1 × 10^−5 molar): 9.08%; % Tritium Label Release with Agent ([3]; agent 1 × 10^−6 molar): 8.77%; % Tritium Label Release with Agent ([3]; agent 1 × 10^−7 molar): 7.17%; % Tritium Label Release with Agent ([3]; agent 1 × 10^−8 molar): 7.24%; % Tritium Label Release with Agent ([3]; agent 1 × 10^−9 molar): 6.88%; % Tritium Label Release with Agent ([3]; agent 1 × 10^−10 molar): 7.21%; % Tritium Label Release with Agent ([3]; agent 5 × 10^−5 molar): 9.7%; % Tritium Label Release with Agent ([3]; agent 5 × 10^−6 molar): 9.36%; % Tritium Label Release with Agent ([3]; agent 5 × 10^−7 molar): 8.08%; Ability to mobilize lipids in adipocytes ([3]; conclusion of Example 1, murine adipocytes): able to mobilize lipids
